# Measured values as given in PubChem BioAssay AID1996.
# Settings: buffer; pH 7.4; 200.0 µM
row,Compound,solubility kinetic [µg/mL]
1,COc1ccc2[nH]cc(CCNC(C)=O)c2c1,> 34.8
2,CNC(=O)c1cccc2cccc(Sc3ccccc3C(=O)O)c12,44.2
3,CC(C(O)c1cc(=O)c(OCc2ccccc2)co1)[N+](=O)[O-] (stereo not given),33.1
4,CC(=O)C1=C(O)C(=O)N(Cc2ccccc2)C1c1ccc([N+](=O)[O-])cc1 (stereo not given),> 52.9
5,COc1ccc(C(=O)NC2CCCCCCC2)cc1OC,15.2
6,CC1(C)CC(=O)C(C(O)c2ccccc2)C(C)(C)N1 (stereo not given),35.2
7,COc1ccccc1C(C#N)c1cccc(Cl)n1 (stereo not given),38
8,Cc1cc(C)c2c(=O)c(/C=C3\NC(=S)NC3=O)coc2c1,0.8
9,Cc1cccc(OCC(O)CN2CCc3ccccc3C2)c1.Cl (stereo not given),> 50.1
10,COc1ccccc1C(NC(C)=O)c1c(O)ccc2ccc(O)cc12 (stereo not given),> 50.6
11,O=C1CN(C(=O)/C=C/c2ccccc2)CCN1,> 34.5
12,O=C(O)C1CCN(S(=O)(=O)c2ccc(Cl)s2)CC1,> 46.5
13,Cc1ccc2c(c1)c1c3n2CCN(C=O)C3CCC1 (stereo not given),28.1
14,Cc1ccc(NC(=S)NCC(C)CSc2ccc(Cl)cc2)cc1 (stereo not given),1.1
15,Cc1noc(C)c1COc1cccc(C(=O)Nc2ccc(Br)cc2F)c1,9.6
16,COc1ccc(-c2csc(NC(=O)[C@H](C)N3C(=O)C4CC=CCC4C3=O)n2)cc1OC (stereo not given in full),38.2
17,CC(C)[C@H](NC(=O)c1ccc(Cl)cc1)C(=O)OCC(=O)N1CCN(c2ccccc2)CC1,52.5
18,Cc1ccc2c(c1)N(CC(=O)Nc1nccs1)C(=O)CO2,1.3
19,Cn1cnc(S(=O)(=O)NC2CCN(Cc3c(F)cccc3Cl)CC2)c1,> 58
20,CCOC(=O)c1sc(NC(=O)c2sc(C)nc2C)nc1C,8.7

row,Compound,solubility kinetic [µg/mL]
1,O=C(Nc1ccc(Cl)c(S(=O)(=O)N2CCCC2)c1)c1cc(=O)[nH]c2ccccc12,14.5
2,C=CCC1(N(C(C)=O)c2ccccc2C)CCCCC1,6.7
3,CSC1=C(C#N)C(c2ccncc2)C(C(=O)Nc2ccccc2)=C(C)N1 (stereo not given),52.5
4,O=C(CN1C(=O)NC2(CCOc3ccccc32)C1=O)c1ccc(Cl)cc1 (stereo not given),1.3
5,CCCNC(=O)c1ccccc1NC(=O)C1=CSCCO1,> 46
6,CCCCOc1ccc(CSC(=N)N)cc1Cl.Cl,40.6
7,CCOn1c(=O)c(-c2ccc(F)cc2)[n+]([O-])c2ccccc21,9.9
8,Cc1cccc(C)c1OCCN1CCCC1,28.7
9,O=C1OC(N2C(=O)CC[C@H]2C(=O)NCC2CCCO2)c2ccccc21 (stereo not given in full),> 51.7
10,O=C(NCCS(=O)(=O)N1CCCCCC1)c1ccccc1,> 46.6
11,CCS(=O)(=O)N1CCC(C(=O)Nc2ccc(C(C)=O)cc2)CC1,> 50.8
12,S=C(c1c[nH]c2ccccc12)N1CCCC1,> 34.5
13,CCOC(=O)NC(=O)CSc1nc2ccc([N+](=O)[O-])cc2[nH]1,22
14,CC(C)S(=O)(=O)c1cnc(N2CCOCC2)nc1N,> 43
15,Nc1ccccc1SC/C=C/CSc1ccccc1N,12.8
16,COC(=O)c1ccc(NCC(=O)Nc2cc(C)cc(C)c2)cc1,5.4
17,COC(=O)c1cc(NC(=O)CN(C)C2CCS(=O)(=O)C2)cc(C(=O)OC)c1.O=C(O)C(=O)O (stereo not given),> 73.3
18,Cc1ccc(NC(=O)c2ccc(OCc3c(C)noc3C)cc2)cc1C,6.7
19,CC(C)NC(=O)CN1CCC(c2nc3ccccc3[nH]2)CC1,> 45.1
20,COn1c(C)c(C)c2c3nonc3ccc21,8.9

row,Compound,solubility kinetic [µg/mL]
1,CCOc1ccc(Nc2nc(-c3cccnc3)cs2)cc1,< 0.2
2,Cl.O=C(CNCc1cccs1)NC12CC3CC(CC(C3)C1)C2,48.1
3,Cc1ccc(C2C(N)C(=O)N2c2ccc(C)cc2)cc1 (stereo not given),> 40
4,O=C(Nc1ccccc1OC(F)(F)F)c1ccc([N+](=O)[O-])cc1,6.8
5,CC(NC(=O)CCc1c[nH]c2ccccc12)c1ccccc1 (stereo not given),> 43.9
6,CC1CCCC(C)N1C(=O)COC(=O)CNC(=O)c1ccccc1F (stereo not given),> 52.6
7,Cc1ccc(CN2CCCC(CO)(Cc3ccccc3C)C2)s1 (stereo not given),48.6
8,COc1ccc(-c2nc(C(=O)O)cs2)cc1OC,> 39.8
9,Cc1cc(C(=O)Nc2ccccc2C(=O)O)c(C)o1,> 38.9
10,Cc1cccc(OCC(=O)Nc2nccs2)c1C,5.1
11,O=C(Nc1nnc(CCN2CCCCC2)s1)c1ccccc1Cl,> 52.6
12,O=C(NCc1ccncc1)c1cc2ccccc2nc1Cl,43.4
13,CC1=C(C)CC(C(=O)NCCc2ccc(F)cc2)C(C(=O)O)C1 (stereo not given),> 47.9
14,CC(C)N=C(Nc1cccnc1)c1ccccc1,> 35.9
15,O=C(Nc1ccccc1N1CCCCC1)c1ccc(OC(F)F)cc1,0.7
16,O=C(O)c1c(-n2cccc2)sc2c1CCCC2,> 37.1
17,COc1cccc(C(=O)Nc2ccccc2C(=O)NC2CC2)c1,11.9
18,COc1ccccc1N1CCN(CCc2ccccc2)CC1,37.5
19,COc1ccccc1C(=O)Nc1onc(C)c1C#N,> 38.6
20,CCN(CC)c1nc(N2CCOCC2)nc2ccccc12.Cl,42.8
